Measured values reported in patent publication US7700577B2, “Carbohydrate based anti-bacterials” (Alchemia Limited, priority 2002, dated 2010).

Experiments:
[1] = tested on: Enterococcus faecalis (ATCC29212); assay: MIC testing, additional organisms: Enterococcus faecalis ATCC29212; format: cell-based
Text: (§1) The broth microdilution format of the National Committee for Clinical Laboratory Standards (NCCLS) approved standard for susceptibility tests as outlined in M7-A4 “methods for dillution Antimicrobial susceptibility tests for bacteria that grow aerobically; approved standard—fifth edition”, January 2000 was utilized for minimum inhibitory concentration testing in Mueller-Hinton broth. The broth for Streptococcus pyogenes testing was supplemented with 2% laked horse blood. A positive result in initial testing was determined by complete inhibition of macroscopic bacterial growth at a concentration of 128 micrograms per mL after incubation for 16 to 24 hours at 37 degrees C. In the case of Micrococcus luteus, incubation was at 30 degrees C.
(§2) Bacterial Types Are: • SA24 S. aureus after 24 hours exposure • SA48 S. aureus after 48 hours exposure • EC24 E. coli after 24 hours exposure
(§3) The following compounds were tested against additional organisims with the following results. • 1. Micrococcus luteus (ATCC272) • 2. Staphylococcus aureus (ATCC29213) • 3. Staphylococcus aureus (ATCC43300) MRSA • 4. Enterococcus faecalis (ATCC29212) • 5. Enterococcus faecalis (ATCCS 1299) Vancomycin resistant • 6. Streptococcus pyrogenes (ATCC8668)

[2] = tested on: Micrococcus luteus (ATCC272); assay: MIC testing, additional organisms: Micrococcus luteus; format: cell-based; details: incubation at 30 degrees C
Text: as §1, §2, §3

[3] = tested on: Staphylococcus aureus (ATCC29213); assay: MIC testing, additional organisms: Staphylococcus aureus ATCC29213; format: cell-based
Text: as §1, §2, §3

[4] = tested on: Enterococcus faecalis (ATCCS 1299) Vancomycin resistant; assay: MIC testing, additional organisms: Enterococcus faecalis vancomycin resistant; format: cell-based
Text: as §1, §2, §3

[5] = tested on: Staphylococcus aureus (ATCC43300) MRSA; assay: MIC testing, additional organisms: Staphylococcus aureus MRSA; format: cell-based
Text: as §1, §2, §3

S. aureus = assay: MIC testing, broth microdilution (NCCLS), S. aureus; format: cell-based, Staphylococcus aureus; details: for SA24 (MIC): S. aureus after 24 hours exposure; for SA48 (MIC): S. aureus after 48 hours exposure
Text: (§4) The broth microdilution format of the National Committee for Clinical Laboratory Standards (NCCLS) approved standard for susceptibility tests as outlined in M7-A4 “methods for dillution Antimicrobial susceptibility tests for bacteria that grow aerobically; approved standard—fifth edition”, January 2000 was utilized for minimum inhibitory concentration testing in Mueller-Hinton broth. The broth for Streptococcus pyogenes testing was supplemented with 2% laked horse blood. A positive result in initial testing was determined by complete inhibition of macroscopic bacterial growth at a concentration of 128 micrograms per mL after incubation for 16 to 24 hours at 37 degrees C. In the case of Micrococcus luteus, incubation was at 30 degrees C. […] Bacterial Types Are: • SA24 S. aureus after 24 hours exposure • SA48 S. aureus after 48 hours exposure • EC24 E. coli after 24 hours exposure

[6] = tested on: Streptococcus pyrogenes (ATCC8668); assay: MIC testing, additional organisms: Streptococcus pyrogenes; format: cell-based; details: broth supplemented with 2% laked horse blood
Text: as §1, §2, §3

E. coli = assay: MIC testing, broth microdilution (NCCLS), E. coli; format: cell-based; details: E. coli after 24 hours exposure
Text: as §4

SMILES	MIC, organism 4 [1]	MIC, organism 1 [2]	MIC, organism 2 [3]	MIC, organism 5 [4]	MIC, organism 3 [5]	SA24 (MIC) (S. aureus)	MIC, organism 6 [6]	SA48 (MIC) (S. aureus)	EC24 (MIC) (E. coli)
CCCCCCCCCCCCC(=O)NC1C(CO)OCC(NC(=O)Nc2cccc(C(F)(F)F)c2)C1OC1OC(CO)C(O)C(O)C1NC(=O)Nc1cccc(C(F)(F)F)c1 (stereo not drawn) [compound 76]	+ (+ indicates an MIC value of less than 128 micrograms per mL)	+ (+ indicates an MIC value of less than 128 micrograms per mL)	+ (+ indicates an MIC value of less than 128 micrograms per mL)	+ (+ indicates an MIC value of less than 128 micrograms per mL)	+ (+ indicates an MIC value of less than 128 micrograms per mL)	+ (+ indicates an MIC value of less than 128 micrograms per mL)	+ (+ indicates an MIC value of less than 128 micrograms per mL)		
CCCCCC(=O)NC1C(CO)OCC(NC(=O)Nc2cccc(C(F)(F)F)c2)C1OC1OC(CO)C(O)C(O)C1NC(=O)Nc1cccc(C(F)(F)F)c1 (stereo not drawn) [compound 70]	+ (+ indicates an MIC value of less than 128 micrograms per mL)	+ (+ indicates an MIC value of less than 128 micrograms per mL)	− (− indicates an MIC of greater then 128 micrograms per mL)	− (− indicates an MIC of greater then 128 micrograms per mL)	− (− indicates an MIC of greater then 128 micrograms per mL)	− (− indicates an MIC of greater then 128 micrograms per mL)	+ (+ indicates an MIC value of less than 128 micrograms per mL)		
O=C(Nc1cccc(C(F)(F)F)c1)NC1COC(CO)C(NC(=O)c2ccc(-c3ccccc3)cc2)C1OC1OC(CO)C(O)C(O)C1NC(=O)Nc1cccc(C(F)(F)F)c1 (stereo not drawn) [compound 74]	+ (+ indicates an MIC value of less than 128 micrograms per mL)	+ (+ indicates an MIC value of less than 128 micrograms per mL)	+ (+ indicates an MIC value of less than 128 micrograms per mL)	+ (+ indicates an MIC value of less than 128 micrograms per mL)	+ (+ indicates an MIC value of less than 128 micrograms per mL)	+ (+ indicates an MIC value of less than 128 micrograms per mL)	+ (+ indicates an MIC value of less than 128 micrograms per mL)		
CCCCCCCCCCS(=O)(=O)NC1C(CO)OCC(NC(=O)Nc2cccc(C(F)(F)F)c2)C1OC1OC(CO)C(O)C(O)C1NC(=O)Nc1cccc(C(F)(F)F)c1 (stereo not drawn) [compound 69]	+ (+ indicates an MIC value of less than 128 micrograms per mL)	+ (+ indicates an MIC value of less than 128 micrograms per mL)	+ (+ indicates an MIC value of less than 128 micrograms per mL)	− (− indicates an MIC of greater then 128 micrograms per mL)	+ (+ indicates an MIC value of less than 128 micrograms per mL)	+ (+ indicates an MIC value of less than 128 micrograms per mL)	+ (+ indicates an MIC value of less than 128 micrograms per mL)		
CCCCCCCCCCN[C@H]1C(CO)OCC(NC(=O)Nc2cccc(C(F)(F)F)c2)[C@H]1O[C@@H]1OC(CO)[C@@H](O)[C@H](O)C1NC(=O)Nc1cccc(C(F)(F)F)c1 (stereo partly drawn) [compound 56]	+ (+ indicates an MIC value of less than 128 micrograms per mL)	+ (+ indicates an MIC value of less than 128 micrograms per mL)	+ (+ indicates an MIC value of less than 128 micrograms per mL)	+ (+ indicates an MIC value of less than 128 micrograms per mL)	+ (+ indicates an MIC value of less than 128 micrograms per mL)	+ (+ indicates an MIC value of less than 128 micrograms per mL)	+ (+ indicates an MIC value of less than 128 micrograms per mL)	+ (+ indicates an MIC value of less than 128 micrograms per mL)	
O=C(Nc1cccc(C(F)(F)F)c1)NC1COC(CO)C(NC(=O)c2ccc(Oc3ccccc3)cc2)C1OC1OC(CO)C(O)C(O)C1NC(=O)Nc1cccc(C(F)(F)F)c1 (stereo not drawn) [compound 73]	+ (+ indicates an MIC value of less than 128 micrograms per mL)	+ (+ indicates an MIC value of less than 128 micrograms per mL)	+ (+ indicates an MIC value of less than 128 micrograms per mL)	+ (+ indicates an MIC value of less than 128 micrograms per mL)	+ (+ indicates an MIC value of less than 128 micrograms per mL)	+ (+ indicates an MIC value of less than 128 micrograms per mL)	+ (+ indicates an MIC value of less than 128 micrograms per mL)		
O=C(Nc1cccc(C(F)(F)F)c1)NC1COC(CO)[C@H](NC(=O)c2ccc(-c3ccccc3)cc2)[C@@H]1O[C@@H]1OC(CO)[C@@H](O)[C@H](O)C1NS(=O)(=O)c1cccc(C(F)(F)F)c1 (stereo partly drawn) [compound 48]						+ (+ indicates an MIC value of less than 128 micrograms per mL)		+ (+ indicates an MIC value of less than 128 micrograms per mL)	− (− indicates an MIC of greater then 128 micrograms per mL)
O=C(Nc1cccc(C(F)(F)F)c1)NC1[C@H](O[C@@H]2C(NS(=O)(=O)c3cccc(C(F)(F)F)c3)COC(CO)[C@@H]2NC(=O)c2ccc(-c3ccccc3)cc2)OC(CO)[C@@H](O)[C@@H]1O (stereo partly drawn) [compound 37]						+ (+ indicates an MIC value of less than 128 micrograms per mL)		+ (+ indicates an MIC value of less than 128 micrograms per mL)	− (− indicates an MIC of greater then 128 micrograms per mL)
Cc1ccc(S(=O)(=O)NC2COC(CO)[C@H](NC(=O)c3ccc(-c4ccccc4)cc3)[C@@H]2O[C@@H]2OC(CO)[C@@H](O)[C@H](O)C2NC(=O)Nc2cccc(C(F)(F)F)c2)cc1 (stereo partly drawn) [compound 39]						+ (+ indicates an MIC value of less than 128 micrograms per mL)		+ (+ indicates an MIC value of less than 128 micrograms per mL)	− (− indicates an MIC of greater then 128 micrograms per mL)
O=C(Nc1cccc(C(F)(F)F)c1)NC1C(OC2C(NC(=O)OCc3ccccc3)COC(CO)C2NC(=O)c2ccc(-c3ccccc3)cc2)OC(CO)C(O)C1O (stereo not drawn) [compound 8]						+ (+ indicates an MIC value of less than 128 micrograms per mL)		+ (+ indicates an MIC value of less than 128 micrograms per mL)	− (− indicates an MIC of greater then 128 micrograms per mL)
Cc1ccc(S(=O)(=O)NC2[C@H](O[C@@H]3C(NC(=O)Nc4cccc(C(F)(F)F)c4)COC(CO)[C@@H]3NC(=O)c3ccc(-c4ccccc4)cc3)OC(CO)[C@@H](O)[C@@H]2O)cc1 (stereo partly drawn) [compound 49]								+ (+ indicates an MIC value of less than 128 micrograms per mL)	− (− indicates an MIC of greater then 128 micrograms per mL)
O=C(Cc1ccc(C(F)(F)F)cc1)NC1COC(CO)C(NC(=O)c2ccc(-c3ccccc3)cc2)C1OC1OC(CO)C(O)C(O)C1NC(=O)Nc1cccc(C(F)(F)F)c1 (stereo not drawn) [compound 7]						+ (+ indicates an MIC value of less than 128 micrograms per mL)		+ (+ indicates an MIC value of less than 128 micrograms per mL)	− (− indicates an MIC of greater then 128 micrograms per mL)
N=C(Nc1cccc(C(F)(F)F)c1)NC1[C@H](O[C@@H]2C(NC(=N)Nc3cccc(C(F)(F)F)c3)COC(CO)[C@@H]2NC(=O)C(N)Cc2ccc(-c3ccccc3)cc2)OC(CO)[C@@H](O)[C@@H]1O (stereo partly drawn) [compound 26]						+ (+ indicates an MIC value of less than 128 micrograms per mL)		+ (+ indicates an MIC value of less than 128 micrograms per mL)	+ (+ indicates an MIC value of less than 128 micrograms per mL)
